Laboratory results as given in patent US20210290580A1, “New use of carbamate ß phenylethanolamine analogues for enhancing intracellular clearance of LDL cholesterol and for combining therapy with statins to enhance the efficacy and reduce adverse effects” (priority 2018, published 2021).

Experiments:
LDL receptors = experiment: LDL receptor expression, anti-LDLR immunofluorescence in liver cells; format: cell-based, Mouse; details: 24 hours; for Up-regulating of LDL receptors (Intensity of fluoresces) MEAN %: hepatic (AML12) cells, control = 100
Method: Cells were incubated with florescence labeled LDL to study the up-taking and metabolite of LDL cholesterol by the cells. LDL specific antibody were used to study LDL receptors expressed by the cells. […] After 24 hours of treatments, the cells were washed and fixed with paraformaldehyde. Cells were then incubated with anti-LDLR primary antibody with 1:200 dilution at room temperature for 4 hours. After washed, the second antibody Alexa Fluor 488 with 1:200 dilutions was added and incubated at room temperature for 2 hours. The cells were washed again before examined under fluorescent microscope. The fluorescence anti-body bound LDL receptors in green and either bound or internalized fluoresces labeled LDL in red were examined separately or after merging. Fluorescent microscope equipped with a digital camera (Axio Observer 7). Computer software was used to quantify the intensity of fluorescence, which is correlated with the amount of LDL and LDL receptors bounded to antibodies.

Mouse liver AML12 cells [1] = experiment: Intracellular cholesterol content in AML12 cells loaded with LDL; format: cell-based; details: for Intracellular cholesterol MEAN % (Synergistic Effects of Combining R-bambuterol and Statin): 10 μM (each drug 10 μM in the combination), LDL 40 μg/ml, AML12 cells, LDL Ctrl = 100; for Reduction of intercellular cholesterol, in words: 10 μM, Mouse liver AML12 cells
Method: (§1) Cells were then treated with different doses of R-bambuterol (R-BM) in the present of LDL (40 μg/ml). After 24 hours of incubation, total intracellular and extracellular cholesterol content were determined using Total Cholesterol Assay Kit E105 (Applygen Technologies Inc., Beijing, China) according to the manufacturer's protocol. The intracellular cholesterol is similar in control and LDL groups.

[2] = test system: Pulmonary artery smooth muscle cell (PASMC)
Method: Cells were cultivated for 24 hours at room temperature. The cells then replaced again with FBS-free medium containing 10% CCK-8 reagent and cultivated for 3 hours in the dark.
A Multi-function micro plate reader (TriStar2S LB942) was used to measure the cell viability.
Cells added no drugs (0 μM) were used as control.

Human liver HepG2 cells = experiment: Intracellular cholesterol content in HepG2 cells loaded with LDL (Total Cholesterol Assay Kit); format: cell-based; details: LDL 40 μg/ml, 24 hours, LDL control = 100
Method: as §1, with “Human liver HepG2 cells were seeded in six well plates in DMEM/F12 supplemented with 10% heat-inactivated fetal bovine serum. Cells” for “Cells”, “protocol.” for “protocol. The intracellular cholesterol is similar in control and LDL groups.”

Mouse liver AML12 cells [3] = experiment: Up-taking of fluorescence labeled LDL by liver cells; format: cell-based; details: 10 μM and 20 μM, 24 hours, compared between groups
Method: Mouse liver AML12 cells were seeded in 24 well plates in DMEM/F12 and supplemented with 10% heat-inactivated fetal bovine serum. Cells were incubated with florescence labeled LDL to study the up-taking and metabolite of LDL cholesterol by the cells. LDL specific antibody were used to study LDL receptors expressed by the cells. […] The fluorescence anti-body bound LDL receptors in green and either bound or internalized fluoresces labeled LDL in red were examined separately or after merging. Fluorescent microscope equipped with a digital camera (Axio Observer 7). Computer software was used to quantify the intensity of fluorescence, which is correlated with the amount of LDL and LDL receptors bounded to antibodies.

[4] = 20 μM (each drug 20 μM in the combination)

Q: Which results are given for CC(C)c1c(C(=O)Nc2ccccc2)c(-c2ccccc2)c(-c2ccc(F)cc2)n1CC[C@@H](O)C[C@@H](O)CC(=O)O [Statin, Atorvastatin]?
A: Up-regulating of LDL receptors (Intensity of fluoresces) MEAN % (LDL receptors; 10 μM): 159.1%; Up-regulating of LDL receptors (Intensity of fluoresces) MEAN % (LDL receptors; [4]): 140.2%; Intracellular cholesterol MEAN % (Synergistic Effects of Combining R-bambuterol and Statin) (Mouse liver AML12 cells [1]): 95.3%; Reduction of intercellular cholesterol, in words (Mouse liver AML12 cells [1]): little effects on intercellular cholesterol

Q: What does the source list for CN(C)C(=O)Oc1cc(OC(=O)N(C)C)cc(C(O)CNC(C)(C)C)c1 (stereo not shown) [R-BM, R-bambuterol]?
A: Toxicity to the viability of PASMC, in words [2]: no toxicity; Reduction of intercellular LDL cholesterol MEAN % (Human liver HepG2 cells; 5 μM): 94.07%; Reduction of intercellular LDL cholesterol MEAN % (Human liver HepG2 cells; 10 μM): 69.26%; Reduction of intercellular LDL cholesterol MEAN % (Human liver HepG2 cells; 20 μM): 28.54%; Reduction of intercellular LDL cholesterol MEAN % (Human liver HepG2 cells; 40 μM): 36.04%; Reduction of intercellular LDL cholesterol MEAN % (Human liver HepG2 cells; 80 μM): 21.02%; Up-regulating of LDL receptors (Intensity of fluoresces) MEAN % (LDL receptors; 10 μM): 202.9%; Up-regulating of LDL receptors (Intensity of fluoresces) MEAN % (LDL receptors; [4]): 337.2%; Increase in LDL receptors expression compared with statin treated groups (LDL receptors; AML12 cells): twice as much as seen in statin treated groups; Intracellular cholesterol MEAN % (Synergistic Effects of Combining R-bambuterol and Statin) (Mouse liver AML12 cells [1]): 94.5%; Reduction of intercellular cholesterol, in words (Mouse liver AML12 cells [1]): less reduction of intercellular cholesterol; Bound and intracellular fluorescence labeled LDL (Mouse liver AML12 cells [3]): significantly more bound and intracellular fluorescence labeled LDL
